Experimental data: ChEMBL document CHEMBL5226340, “Chemical Biology of Sortase A Inhibition: A Gateway to Anti-infective Therapeutic Agents” (J Med Chem, 2021)
≈ marks a conversion by molar mass, not a printed value. Where a name gives a salt, the structure may show the parent alone. Values belong to the compound of their own block, whether it stands above or below them.

Assays:
Sortase A [1] = biological target: T1, Sortase A (Staphylococcus aureus, UniProt Q9S446); assay: Inhibition of Staphylococcus aureus ATCC 6538p SrtA using dabcyl-LPETG-edans as substrate incubated for 1 hr by fluorometric analysis
T1 sequence (Q9S446 whole entry): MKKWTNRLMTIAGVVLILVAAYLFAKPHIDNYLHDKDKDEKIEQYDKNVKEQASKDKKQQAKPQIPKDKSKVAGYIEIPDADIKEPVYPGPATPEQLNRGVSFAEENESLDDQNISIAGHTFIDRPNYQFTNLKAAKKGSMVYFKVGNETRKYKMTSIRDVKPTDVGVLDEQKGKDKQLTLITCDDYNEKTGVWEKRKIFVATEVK

[2] = biological target: T2, Sortase A (Staphylococcus aureus) (UniProt Q9S446); assay: Inhibition of Staphylococcus aureus SrtA expressed in Escherichia coli BL21 (DE3) cells using Abz-LPETG-Dap(Dnp) as substrate assessed as kinact/ki
T2 sequence (whole entry): T1 sequence (Q9S446 whole entry)

Sortase A [3] = biological target: T1, Sortase A; assay: Inhibition of Staphylococcus aureus SrtA using EDANS-Dabcyl as substrate by FRET assay
Staphylococcus aureus [4] = assay: Antibacterial activity against Staphylococcus aureus Newman assessed as inhibition of bacterial growth by spectrophotometer method; type: functional
Sortase A [5] = biological target: T1, Sortase A; assay: Inhibition of C-terminal 6His-tagged recombinant Staphylococcus aureus SrtA with 1 to 59 residues truncated from N-terminus expressed in Escherichia coli BL21 (DE3) using dabcyl-QALPETGEE-edans as substrate preincubated for 1 hr followed by substrate addition and measured for 1 hr by FRET assay
Staphylococcus aureus [6] = assay: Inhibition of biofilm formation in Staphylococcus aureus ATCC 29213 incubated for 24 hrs by crystal violet staining based analysis; type: functional, organism-based; conditions: ATCC 29213, 24 h
Sortase A [7] = biological target: T1, Sortase A; assay: Inhibition of Staphylococcus aureus SrtA with 24 residues truncated from N-terminus using Abz-LPATG-Dap as substrate
Sortase A [8] = biological target: T1, Sortase A; assay: Inhibition of recombinant Staphylococcus aureus SrtA using DabcylQALPETGEE-Edans as substrate by FRET assay
Staphylococcus aureus [9] = assay: Antibacterial activity against Staphylococcus aureus SA113 by microbroth dilution assay; type: functional
[10] = biological target: T2, Sortase A (Staphylococcus aureus); assay: Binding affinity to Staphylococcus aureus SrtA assessed as kinact/ki
Staphylococcus aureus [11] = assay: Antibacterial activity against Staphylococcus aureus; type: functional
Staphylococcus aureus [12] = assay: Inhibition of biofilm formation in Staphylococcus aureus ATCC 6538 incubated for 24 hrs by crystal violet staining based analysis; type: functional, organism-based; conditions: ATCC 6538, 24 h
[13] = biological target: T2, Sortase A (Staphylococcus aureus); assay: Binding affinity to Staphylococcus aureus SrtA (60 to 206 residues) using Dabcyl-Gln-Ala-Leu-Pro-Glu-Thr-Gly-Glu-Glu-Edans as substrate assessed as first order rate constant of inactivation incubated for 12 hrs by fluorescence based analysis
[14] = biological target: T2, Sortase A (Staphylococcus aureus); assay: Binding affinity to Staphylococcus aureus SrtA (60 to 206 residues) using Dabcyl-Gln-Ala-Leu-Pro-Glu-Thr-Gly-Glu-Glu-Edans as substrate assessed as second order rate constant of inhibition, kinact/ki incubated for 12 hrs by fluorescence based analysis
Sortase A [15] = biological target: T1, Sortase A; assay: Binding affinity to Staphylococcus aureus SrtA (60 to 206 residues) using Dabcyl-Gln-Ala-Leu-Pro-Glu-Thr-Gly-Glu-Glu-Edans as substrate incubated for 12 hrs by fluorescence based analysis
Sortase A [16] = biological target: T1, Sortase A; assay: Inhibition of Staphylococcus aureus SrtA expressed in Escherichia coli BL21 (DE3) cells using Abz-LPETG-Dap(Dnp) as substrate preincubated for 30 mins followed by substrate addition and further incubated for 30 mins by HPLC analysis
Sortase A [17] = biological target: T1, Sortase A; assay: Inhibition of Staphylococcus aureus SrtA expressed in Escherichia coli by fluorescence based analysis
Staphylococcus aureus [18] = assay: Inhibition of biofilm formation in Staphylococcus aureus ATCC 29213 at 100 uM incubated for 24 hrs by safranin staining based analysis relative to control; type: functional
Staphylococcus aureus [19] = assay: Inhibition of biofilm formation in Staphylococcus aureus ATCC 25923 at 100 uM incubated for 24 hrs by safranin staining based analysis relative to control; type: functional
Staphylococcus aureus [20] = assay: Inhibition of biofilm formation in Staphylococcus aureus ATCC 6538 at 100 uM incubated for 24 hrs by safranin staining based analysis relative to control; type: functional

SMILES: C[C@H]1CC[C@H]2[C@@H](C=C[C@@](C)(O)[C@]2(C)C(=O)CCO)C1
IC50 (Sortase A [1]): 146 µM

SMILES: O=C(NCCSSCCNC(=O)/C(Cc1ccc(O)c(Br)c1)=N/O)/C(Cc1ccc(O)c(Br)c1)=N/O [PSAMMAPLIN A]
IC50 (Sortase A [3]): 47.4 µM
MIC (Staphylococcus aureus [4]): > 200 µg/mL

SMILES: CCOC(=O)/C(=N\Nc1ccc(Cl)c(Cl)c1)C(=O)c1cc(C)nn1CC
IC50 (Sortase A [5]): > 200 µM
IC50 (Staphylococcus aureus [6]): 1.7 µM

SMILES: Clc1ccccc1-c1nn2c(-c3ccncc3)nnc2s1
IC50 (Sortase A [7]): 37.7 µM

SMILES: COc1ccc2c(c1OC)C(=O)O[C@@H]2[C@H]1c2cc3c(cc2CCN1C)OCO3 [HYDRASTINE]
IC50 (Sortase A [8]): > 209 µM

SMILES: CCOC(=O)/C(=N\Nc1c(F)cccc1F)C(=O)c1cc(C)nn1CC
IC50 (Sortase A [5]): 75 µM
MIC (Staphylococcus aureus [11]): > 200 µM
IC50 (Staphylococcus aureus [12]): 0.9 µM

SMILES: COc1ccc2cc3[n+](cc2c1OC)CCc1cc2c(cc1-3)OCO2 [BERBERINE SULFATE]
IC50 (Sortase A [8]): 26.5 µM

SMILES: c1cc(-c2nnc3sc(-c4ccc5[nH]cnc5c4)nn23)ccn1
IC50 (Sortase A [7]): 17 µM

SMILES: Cc1cc2nc3[nH]c(=O)[nH]c(=O)c3nc2cc1C [LUMICHROME]
IC50 (Sortase A [17]): 198 µM

SMILES: CC(=O)/C(=N/Nc1ccccc1)C(=O)O
IC50 (Sortase A [5]): 80 µM
MIC (Staphylococcus aureus [11]): > 270 µM
inhibition at 100 µM (Staphylococcus aureus [18]): 60%
inhibition at 100 µM (Staphylococcus aureus [19]): 60%
inhibition at 100 µM (Staphylococcus aureus [20]): 60%

Further lines, results first:

Ratio [2]: 20.1 M⁻¹ min⁻¹
SMILES: C=CS(=O)(=O)c1ccccc1

MIC (Staphylococcus aureus [9]): 7.74 µM (≈ 3.13 µg/mL)
Ratio [10]: 5.79 10^4/M/min
SMILES: CCSSc1ccccc1C(=O)NCC(=O)NC12CC3CC(CC(C3)C1)C2

MIC (Staphylococcus aureus [9]): 116 µM (≈ 50 µg/mL)
Ratio [10]: 5.75 10^4/M/min
SMILES: CSSc1ccccc1C(=O)N1CCC[C@H]1C(=O)NC12CC3CC(CC(C3)C1)C2

Kinact [13]: 4 10^-4/min
Kinact [14]: 0.74 M⁻¹ s⁻¹
Ratio [14]: 44.4 M⁻¹ min⁻¹
Ki (Sortase A [15]): 9 µM
SMILES: CC(C)C[C@H](NC(=O)OCc1ccccc1)C(=O)N1CCC[C@H]1C(=O)N[C@@H](C)C(=O)N[C@@H](/C=C/S(=O)(=O)c1ccccc1)[C@@H](C)O

MIC (Staphylococcus aureus [9]): 16 µM (≈ 6.25 µg/mL)
Ratio [10]: 5.93 10^4/M/min
SMILES: CSSc1ccccc1C(=O)NCC(=O)NC12CC3CC(CC(C3)C1)C2

Ratio [2]: 90 M⁻¹ min⁻¹
IC50 (Sortase A [16]): 190 µM
SMILES: O=S(=O)(/C=C\C(F)(F)F)c1ccccc1
